Source: article PMC11984871, “Perillaldehyde Improves Parkinson‐Like Deficits by Targeting G3BP Mediated Stress Granule Assembly in Preclinical Models” (Advanced Science, 2025)

Target: T1, G3BP1 (Homo sapiens, UniProt Q13283)
T1 construct: full-length, EGFP-tagged (mEGFP), recombinant in E. coli BL21(DE3) from pET-28a, size-exclusion purified; immobilized on CM5 chip
Experiment: SPR (Biacore 8K, CM5 chip, immobilized EGFP-G3BP1, […] Langmuir fit)
Format: binding

T1 sequence (Q13283 2-466): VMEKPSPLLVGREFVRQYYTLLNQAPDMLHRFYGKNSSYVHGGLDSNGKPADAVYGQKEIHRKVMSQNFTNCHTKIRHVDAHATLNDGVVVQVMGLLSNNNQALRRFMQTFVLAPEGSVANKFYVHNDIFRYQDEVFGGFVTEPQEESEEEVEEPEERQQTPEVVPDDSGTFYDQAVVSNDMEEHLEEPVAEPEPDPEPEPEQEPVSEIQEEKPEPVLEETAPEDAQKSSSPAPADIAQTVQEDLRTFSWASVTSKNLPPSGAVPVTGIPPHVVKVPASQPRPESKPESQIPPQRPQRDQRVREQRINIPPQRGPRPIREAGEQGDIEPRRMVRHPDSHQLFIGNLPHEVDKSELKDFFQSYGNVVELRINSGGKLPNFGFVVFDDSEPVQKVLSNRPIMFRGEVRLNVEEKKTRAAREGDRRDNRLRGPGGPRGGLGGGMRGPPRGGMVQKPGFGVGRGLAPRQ

Compound | Kd [µM]
C=C(C)[C@@H]1CC=C(C=O)CC1 [perillaldehyde] | 5.49
CC(=NNC(=O)c1ccccc1O)c1ccccc1O [C108] | 2.71
